In patent publication US12582120B2, “Compositions with fatty acids and optional cationic compounds and methods of use” (priority 2021, dated 2026):
“And” between values parts separate entries of the source, which are not always exact repeats. Equal entries are not always repeated.

Experiments:
[1] = known antimicrobial agents; cited from earlier work
[2] = tested on: Acetobacter aceti (ATCC 15973); experiment: Example 1 preliminary screen of antimicrobial efficacy, Acetobacter; type: cell-based; settings: 60 s, 50 °C
Protocol: (§1) Example 1 was a preliminary screen of various compositions for antimicrobial efficacy against acetobacter and lactobacillus and yeast. For this example, the compositions were applied for 1 minute at 50° C. or 60° C. to Acetobacter aceti (ATCC 15973), Lactobacillus brevis (ATCC 14869), or Saccharomyces cerevisiae (ATCC 834).

[3] = tested on: Lactobacillus brevis (ATCC 14869); experiment: Example 1 preliminary screen of antimicrobial efficacy, Lactobacillus; type: cell-based
Source text: Example 1 was a preliminary screen of various compositions for antimicrobial efficacy against acetobacter and lactobacillus and yeast. […]

[4] = tested on: Saccharomyces cerevisiae (ATCC 834); experiment: Example 1 preliminary screen of antimicrobial efficacy, yeast; type: cell-based; settings: pH 9, 60 s, 50 °C
Protocol: as §1

[5] = tested on: Acetobacter aceti (ATCC 15973); experiment: Example 3 suspension test of nonanoic acid alone, Acetobacter; type: cell-based; settings: for % reduction / Log Reduction: Nonanoic Acid 200 ppm, pH 9
Protocol: (§2) Example 3 tested concentrations of nonanoic acid alone for antimicrobial efficacy against acetobacter and lactobacillus. For this example, the compositions were applied for the recorded time and temperature to suspensions of Acetobacter aceti (ATCC 15973), or Lactobacillus brevis (ATCC 14869). After the period of time, a neutralizer was added to quench the reaction. The remaining solution was plated and counted for colonies and compared to the untreated control. The log reduction was recorded in the table below. The information in the column labeled “solution” describes the solution environment that was used for a test. For example, the solution may have included 0.5% or 1% sodium bicarbonate. The solution may have included multi-day old used clean-in-place solution from a plant that included sodium carbonate (labeled “used CIP”). The pH of the solution was adjusted with sodium carbonate.

[6] = tested on: Lactobacillus brevis (ATCC 14869); experiment: Example 3 suspension test of nonanoic acid alone, Lactobacillus; type: cell-based; settings: for % reduction / Log Reduction: Nonanoic Acid 200 ppm
Protocol: as §2

[7] = 60 s, 50 °C, 1% sodium bicarbonate
[8] = various times, temperatures, pHs, and solution conditions (Table 3)
[9] = pH 8.5, 60 s, 50 °C, 1% sodium bicarbonate
[10] = pH 8.5, 600 s, 50 °C, 1% sodium bicarbonate
[11] = pH 8.5, 2 days, 20 °C, used CIP
[12] = pH 8.7, 60 s, 45 °C, 0.5% sodium bicarbonate
[13] = pH 8.7, 120 s, 45 °C, 0.5% sodium bicarbonate
[14] = pH 8.7, 300 s, 45 °C, 0.5% sodium bicarbonate
[15] = pH 8.7, 600 s, 45 °C, 0.5% sodium bicarbonate
[16] = pH 9, 60 s, 50 °C, 1% sodium bicarbonate
[17] = pH 10.5, 60 s, 50 °C, 1% sodium bicarbonate
[18] = pH 10.5, 600 s, 50 °C, used CIP
[19] = pH not adjusted, 60 s, 45 °C, 0.5% sodium bicarbonate
[20] = pH not adjusted, 120 s, 45 °C, 0.5% sodium bicarbonate
[21] = pH not adjusted, 300 s, 45 °C, 0.5% sodium bicarbonate
[22] = pH not adjusted, 600 s, 45 °C, 0.5% sodium bicarbonate

OO [hydrogen peroxide]
Typical Antimicrobial pH Range [1]: <5

CCCCCCCC(=O)OO [peroctanoic acid]
Typical Antimicrobial pH Range [1]: <5

CCCCCCCCCCCC(=O)N[C@@H](CCCN=C(N)N)C(=O)OCC [Ethyl Lauroyl Arginate, ethyl lauroyl arginate]
% reduction ([2]; Ethyl Lauroyl Arginate 2.5 ppm, pH 9): 99.891%
% reduction ([2]; Ethyl Lauroyl Arginate 5 ppm, pH 9): 99.981% and 99.922%
% reduction ([2]; Ethyl Lauroyl Arginate 25 ppm, pH 4): 32.759%
% reduction ([2]; Ethyl Lauroyl Arginate 25 ppm, pH 9): 99.808%
% reduction ([2]; Ethyl Lauroyl Arginate 25 ppm, pH 10): 99.241%
% reduction ([2]; Ethyl Lauroyl Arginate 50 ppm, pH 4): 98.491%
% reduction ([2]; Ethyl Lauroyl Arginate 50 ppm, pH 10): 99.763%
% reduction ([2]; Ethyl Lauroyl Arginate 200 ppm, pH 7): 99.999%
% reduction ([2]; Ethyl Lauroyl Arginate 200 ppm, pH 10): 99.998%
% reduction ([3]; Ethyl Lauroyl Arginate 5 ppm, pH 4, 60 s, 50 °C): 98.844%
% reduction ([3]; Ethyl Lauroyl Arginate 5 ppm, pH 9, 60 s, 50 °C): 99.999%
% reduction ([3]; Ethyl Lauroyl Arginate 25 ppm, pH 4, 50 s, 60 °C): 99.999%
% reduction ([3]; Ethyl Lauroyl Arginate 25 ppm, pH 10, 50 s, 60 °C): 100.000%
% reduction ([3]; Ethyl Lauroyl Arginate 50 ppm, pH 4, 50 s, 60 °C): 100.000%
% reduction ([3]; Ethyl Lauroyl Arginate 50 ppm, pH 10, 50 s, 60 °C): 100.000%
% reduction ([4]; Ethyl Lauroyl Arginate 5 ppm): 99.888%

acidified sodium chlorite
Typical Antimicrobial pH Range [1]: 2.5-4

CC(=O)OO [peracetic acid]
Typical Antimicrobial pH Range [1]: <7

CCCCCCCCC(=O)O [Nonanoic Acid, nonanoic acid]
% reduction ([2]; Nonanoic Acid 125 ppm, pH 9): 99.998%
% reduction ([3]; Nonanoic Acid 125 ppm, pH 4, 60 s, 50 °C): 100.000%
% reduction ([3]; Nonanoic Acid 125 ppm, pH 9, 60 s, 50 °C): 96.125%
% reduction ([4]; Nonanoic Acid 125 ppm): 99.954%
% reduction [5, 7]: 99.993%
Log Reduction [5, 7]: 4.18
% reduction ([5]; 2 days, 20 °C, used CIP): 97.846%
Log Reduction ([5]; 2 days, 20 °C, used CIP): 1.67
reducing gram negative bacteria [5, 8]: effective
% reduction [6, 9]: 99.636%
Log Reduction [6, 9]: 2.44
% reduction [6, 10]: 100.000%
Log Reduction [6, 10]: 6.90
% reduction ([6]; pH 8.5, 600 s, 50 °C, used CIP): 100.000%
Log Reduction ([6]; pH 8.5, 600 s, 50 °C, used CIP): 7.04
% reduction [6, 11]: 100.000%
Log Reduction [6, 11]: 7.20
% reduction [6, 12]: 99.900%
Log Reduction [6, 12]: 3.00
% reduction [6, 13]: 100.000%
Log Reduction [6, 13]: 7.64
% reduction [6, 14]: 100.000%
Log Reduction [6, 14]: 7.64
% reduction [6, 15]: 100.000%
Log Reduction [6, 15]: 7.64
% reduction [6, 16]: 99.736%
Log Reduction [6, 16]: 2.58
% reduction ([6]; pH 9, 600 s, 50 °C, used CIP): 100.000%
Log Reduction ([6]; pH 9, 600 s, 50 °C, used CIP): 7.04
% reduction ([6]; pH 9, 2 days, 20 °C, used CIP): 100.000%
Log Reduction ([6]; pH 9, 2 days, 20 °C, used CIP): 7.20
% reduction [6, 17]: 100.000%
Log Reduction [6, 17]: 7.04
% reduction [6, 18]: 100.000%
Log Reduction [6, 18]: 7.04
% reduction [6, 19]: 99.905%
Log Reduction [6, 19]: 3.02
% reduction [6, 20]: 100.000%
Log Reduction [6, 20]: 6.34
% reduction [6, 21]: 100.000%
Log Reduction [6, 21]: 7.64
% reduction [6, 22]: 100.000%
Log Reduction [6, 22]: 7.64
reducing gram positive bacteria [6, 8]: effective

CCCCCCCC(=O)O [Octanoic Acid, octanoic acid]
% reduction ([2]; Octanoic Acid 100 ppm, pH 4): 0.000%
% reduction ([2]; Octanoic Acid 100 ppm, pH 5): 54.967%
% reduction ([2]; Octanoic Acid 100 ppm, pH 9): 99.999% and 99.998%
% reduction ([2]; Octanoic Acid 125 ppm, pH 9): 99.998%
% reduction ([2]; Octanoic Acid 150 ppm, pH 4): 86.207%
% reduction ([2]; Octanoic Acid 200 ppm, pH 4): 99.998% and 99.996%
% reduction ([2]; Octanoic Acid 200 ppm, pH 7): 99.993%
% reduction ([3]; Octanoic Acid 125 ppm, pH 4, 60 s, 50 °C): 100.000%
% reduction ([3]; Octanoic Acid 125 ppm, pH 9, 60 s, 50 °C): 97.813%
% reduction ([3]; Octanoic Acid 150 ppm, pH 4, 50 s, 60 °C): 100.000%
% reduction ([3]; Octanoic Acid 200 ppm, pH 4, 50 s, 60 °C): 100.000%
% reduction ([4]; Octanoic Acid 125 ppm): 100.000%
